Values of other authors, collected in PMC3066409 (Diabetic Medicine, 2010).
Structures can show the parent of a compound that is named as a salt.

Details: prescribing information

CCN(CC)CCNC(=O)c1cc(Cl)c(N)cc1OC [metoclopramide]
Drowsiness: reported adverse effect

Cc1nccn1CC1CCc2c(c3ccccc3n2C)C1=O (centres unmarked) [ondansetron, ondansetron hydrochloride]
Drowsiness: reported adverse effect
